Laboratory results published in ChEMBL document CHEMBL3885881, “DrugMatrix”.

Species on record: Rattus norvegicus
Experiment: DrugMatrix - Regimen: Daily Repeat
Assay type: toxicity, organism-based, Sprague-Dawley
Design: regimen Daily Repeat, gender Male, age 6-8 weeks
Conditions: in vivo, po, route oral GAVAGE, […]; for ABSOLUTE BASOPHIL / ABSOLUTE EOSINOPHIL / ABSOLUTE LYMPHOCYTE / ABSOLUTE MONOCYTE / ABSOLUTE SEGMENTED NEUTROPHIL / BASOPHIL / EOSINOPHIL / ERYTHROCYTE COUNT / HEMATOCRIT / HEMOGLOBIN / LEUKOCYTE COUNT / LYMPHOCYTE / MEAN CORPUSCULAR HEMOGLOBIN / MEAN CORPUSCULAR HEMOGLOBIN CONCENTRATION / MEAN CORPUSCULAR VOLUME / MONOCYTE / NEUTROPHIL / NUCLEATED RED BLOOD CELLS / PLATELET COUNT: tissue Blood; for ALANINE AMINOTRANSFERASE / ALBUMIN / ALKALINE PHOSPHATASE / ASPARTATE AMINOTRANSFERASE / BLOOD UREA NITROGEN / CARBON DIOXIDE / CHLORIDE / CHOLESTEROL / CREATINE PHOSPHOKINASE / CREATININE / GLUCOSE / LACTATE DEHYDROGENASE / LIPASE / PHOSPHORUS / POTASSIUM / SODIUM / TOTAL BILIRUBIN / TOTAL PROTEIN / URIC ACID: tissue Plasma
[1] = 0.05 mg/kg, 120 h, dose level Low, time 5 day
[2] = 7 mg/kg, 72 h, dose level High, time 3 day
[3] = 7 mg/kg, 120 h, dose level High, time 5 day

COCc1c(C(C)C)nc(C(C)C)c(/C=C/[C@@H](O)C[C@@H](O)CC(=O)O)c1-c1ccc(F)cc1 [CERIVASTATIN]
ABSOLUTE BASOPHIL [1]: 0 CELLS/uL | ABSOLUTE EOSINOPHIL [1]: 39 CELLS/uL | ABSOLUTE LYMPHOCYTE [1]: 10187.67 CELLS/uL | ABSOLUTE MONOCYTE [1]: 164.67 CELLS/uL | ABSOLUTE SEGMENTED NEUTROPHIL [1]: 875.33 CELLS/uL | BASOPHIL [1]: 0% | EOSINOPHIL [1]: 0.33% | ERYTHROCYTE COUNT [1]: 5.9 x10E6/uL | HEMATOCRIT [1]: 36.4% | HEMOGLOBIN [1]: 13.87 G/DL | LEUKOCYTE COUNT [1]: 11.27 x10E3/uL | LYMPHOCYTE [1]: 90.33% | MEAN CORPUSCULAR HEMOGLOBIN [1]: 23.53 pg | MEAN CORPUSCULAR HEMOGLOBIN CONCENTRATION [1]: 38.1 G/DL | MEAN CORPUSCULAR VOLUME [1]: 61.73 fL | MONOCYTE [1]: 1.33% | NEUTROPHIL [1]: 8% | NUCLEATED RED BLOOD CELLS [1]: 0 /100WBC | PLATELET COUNT [1]: 1545 x10E3/uL | ALANINE AMINOTRANSFERASE [1]: 66.33 u/L | ALBUMIN [1]: 4.1 G/DL | ALKALINE PHOSPHATASE [1]: 440.67 u/L | ASPARTATE AMINOTRANSFERASE [1]: 90 u/L | BLOOD UREA NITROGEN [1]: 14.67 mg/dL | CARBON DIOXIDE [1]: 32 mmol/L | CHLORIDE [1]: 101 MEQ/L | CHOLESTEROL [1]: 63.67 mg/dL | CREATINE PHOSPHOKINASE [1]: 453 u/L | CREATININE [1]: 0.19 mg/dL | GLUCOSE [1]: 143.33 mg/dL | LACTATE DEHYDROGENASE [1]: 112.33 u/L | LIPASE [1]: 11.33 u/L | PHOSPHORUS [1]: 10.8 mg/dL | POTASSIUM [1]: 6.11 MEQ/L | SODIUM [1]: 144.4 MEQ/L | TOTAL BILIRUBIN [1]: 0.17 mg/dL | TOTAL PROTEIN [1]: 5.87 G/DL | URIC ACID [1]: 1.37 mg/dL | ABSOLUTE BASOPHIL [2]: 0 CELLS/uL | ABSOLUTE EOSINOPHIL [2]: 0 CELLS/uL | ABSOLUTE LYMPHOCYTE [2]: 7320 CELLS/uL | ABSOLUTE MONOCYTE [2]: 110 CELLS/uL | ABSOLUTE SEGMENTED NEUTROPHIL [2]: 1470 CELLS/uL | BASOPHIL [2]: 0% | EOSINOPHIL [2]: 0% | ERYTHROCYTE COUNT [2]: 6.07 x10E6/uL | HEMATOCRIT [2]: 37.7% | HEMOGLOBIN [2]: 14.3 G/DL | LEUKOCYTE COUNT [2]: 8.9 x10E3/uL | LYMPHOCYTE [2]: 81.67% | MEAN CORPUSCULAR HEMOGLOBIN [2]: 23.6 pg | MEAN CORPUSCULAR HEMOGLOBIN CONCENTRATION [2]: 37.93 G/DL | MEAN CORPUSCULAR VOLUME [2]: 62.2 fL | MONOCYTE [2]: 1.33% | NEUTROPHIL [2]: 17% | NUCLEATED RED BLOOD CELLS [2]: 0 /100WBC | PLATELET COUNT [2]: 1276.33 x10E3/uL | ALANINE AMINOTRANSFERASE [2]: 401.33 u/L | ALBUMIN [2]: 4.23 G/DL | ALKALINE PHOSPHATASE [2]: 440.67 u/L | ASPARTATE AMINOTRANSFERASE [2]: 730.67 u/L | BLOOD UREA NITROGEN [2]: 14.33 mg/dL | CARBON DIOXIDE [2]: 34.67 mmol/L | CHLORIDE [2]: 99.33 MEQ/L | CHOLESTEROL [2]: 65.33 mg/dL | CREATINE PHOSPHOKINASE [2]: 536.67 u/L | CREATININE [2]: 0.21 mg/dL | GLUCOSE [2]: 138.33 mg/dL | LACTATE DEHYDROGENASE [2]: 823 u/L | LIPASE [2]: 11.33 u/L | PHOSPHORUS [2]: 10.17 mg/dL | POTASSIUM [2]: 6.19 MEQ/L | SODIUM [2]: 145.1 MEQ/L | TOTAL BILIRUBIN [2]: 0.13 mg/dL | TOTAL PROTEIN [2]: 5.9 G/DL | URIC ACID [2]: 1.17 mg/dL | ABSOLUTE BASOPHIL [3]: 0 CELLS/uL | ABSOLUTE EOSINOPHIL [3]: 0 CELLS/uL | ABSOLUTE LYMPHOCYTE [3]: 5700.67 CELLS/uL | ABSOLUTE MONOCYTE [3]: 483.33 CELLS/uL | ABSOLUTE SEGMENTED NEUTROPHIL [3]: 1949.33 CELLS/uL | BASOPHIL [3]: 0% | EOSINOPHIL [3]: 0% | ERYTHROCYTE COUNT [3]: 6.32 x10E6/uL | HEMATOCRIT [3]: 41% | HEMOGLOBIN [3]: 15.23 G/DL | LEUKOCYTE COUNT [3]: 8.13 x10E3/uL | LYMPHOCYTE [3]: 68.33% | MEAN CORPUSCULAR HEMOGLOBIN [3]: 24.1 pg | MEAN CORPUSCULAR HEMOGLOBIN CONCENTRATION [3]: 37.17 G/DL | MEAN CORPUSCULAR VOLUME [3]: 64.93 fL | MONOCYTE [3]: 5.67% | NEUTROPHIL [3]: 26% | NUCLEATED RED BLOOD CELLS [3]: 0 /100WBC | PLATELET COUNT [3]: 1312.67 x10E3/uL | ALANINE AMINOTRANSFERASE [3]: 247.33 u/L | ALBUMIN [3]: 3.9 G/DL | ALKALINE PHOSPHATASE [3]: 548.33 u/L | ASPARTATE AMINOTRANSFERASE [3]: 624.67 u/L | BLOOD UREA NITROGEN [3]: 19 mg/dL | CARBON DIOXIDE [3]: 35.67 mmol/L | CHLORIDE [3]: 93 MEQ/L | CHOLESTEROL [3]: 85 mg/dL | CREATINE PHOSPHOKINASE [3]: 915.67 u/L | CREATININE [3]: 0.27 mg/dL | GLUCOSE [3]: 124.33 mg/dL | LACTATE DEHYDROGENASE [3]: 295 u/L | LIPASE [3]: 13 u/L | PHOSPHORUS [3]: 8 mg/dL | POTASSIUM [3]: 5.51 MEQ/L | SODIUM [3]: 142.73 MEQ/L | TOTAL BILIRUBIN [3]: 0.13 mg/dL | TOTAL PROTEIN [3]: 6.1 G/DL | URIC ACID [3]: 0.87 mg/dL
